{
  "source": "paper PMC12281424",
  "about": "“A Rac-specific competitive inhibitor of guanine nucleotide binding reduces metastasis in triple-negative breast cancer” (Cell Reports Medicine, 2025)",
  "key": {"[1]": {"target": "PI3K (p110a(E545K)/p85a)(h) (Homo sapiens, UniProt P42336, E545K)", "experiment": "Kinase Profiler", "assay_type": "biochemical", "description": "(§2) The kinase profiler was performed by the company Eurofins (Discovery, Panlab and Cerep)."}, "SRMS(h)": {"target": "SRMS(h) (Homo sapiens, UniProt Q9H3Y6)", "experiment": "Kinase Profiler", "assay_type": "biochemical", "description": "as §2"}, "Rsk3(h)": {"target": "Rsk3(h) (Homo sapiens, UniProt Q15349)", "experiment": "Kinase Profiler", "assay_type": "biochemical", "description": "as §2"}, "MLK4(h)": {"target": "MLK4(h) (Homo sapiens, UniProt Q5TCX8)", "experiment": "Kinase Profiler", "assay_type": "biochemical", "description": "(§3) Blood cell counts, kinase profiler, safety screen, bacterial cytotoxicity, Ames, micronucleus assays were performed by the company Eurofins (France). The kinase profiler was performed by the company Eurofins (Discovery, Panlab and Cerep)."}, "CHK1(h)": {"target": "CHK1(h) (Homo sapiens, UniProt O14757)", "experiment": "Kinase Profiler", "assay_type": "biochemical", "description": "as §2"}, "MEK1(h)": {"target": "MEK1(h) (Homo sapiens, UniProt Q02750)", "sequence (Q02750 whole entry)": "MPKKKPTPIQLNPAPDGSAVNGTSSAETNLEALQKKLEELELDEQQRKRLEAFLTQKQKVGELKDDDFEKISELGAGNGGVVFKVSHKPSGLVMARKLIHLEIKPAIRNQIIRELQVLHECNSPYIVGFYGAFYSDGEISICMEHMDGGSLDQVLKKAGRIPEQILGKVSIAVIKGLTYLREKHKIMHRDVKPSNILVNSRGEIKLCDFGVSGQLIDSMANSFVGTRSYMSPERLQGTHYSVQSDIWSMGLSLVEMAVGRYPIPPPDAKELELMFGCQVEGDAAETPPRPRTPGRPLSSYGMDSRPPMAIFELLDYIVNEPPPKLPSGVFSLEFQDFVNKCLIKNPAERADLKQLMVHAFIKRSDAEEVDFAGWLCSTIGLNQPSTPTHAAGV", "experiment": "Kinase Profiler", "assay_type": "biochemical", "description": "as §2"}, "SBK1(h)": {"target": "SBK1(h) (Homo sapiens, UniProt Q52WX2)", "experiment": "Kinase Profiler", "assay_type": "biochemical", "description": "as §2"}, "PRK2(h)": {"target": "PRK2(h) (Homo sapiens, UniProt Q16513)", "sequence (Q16513 whole entry)": "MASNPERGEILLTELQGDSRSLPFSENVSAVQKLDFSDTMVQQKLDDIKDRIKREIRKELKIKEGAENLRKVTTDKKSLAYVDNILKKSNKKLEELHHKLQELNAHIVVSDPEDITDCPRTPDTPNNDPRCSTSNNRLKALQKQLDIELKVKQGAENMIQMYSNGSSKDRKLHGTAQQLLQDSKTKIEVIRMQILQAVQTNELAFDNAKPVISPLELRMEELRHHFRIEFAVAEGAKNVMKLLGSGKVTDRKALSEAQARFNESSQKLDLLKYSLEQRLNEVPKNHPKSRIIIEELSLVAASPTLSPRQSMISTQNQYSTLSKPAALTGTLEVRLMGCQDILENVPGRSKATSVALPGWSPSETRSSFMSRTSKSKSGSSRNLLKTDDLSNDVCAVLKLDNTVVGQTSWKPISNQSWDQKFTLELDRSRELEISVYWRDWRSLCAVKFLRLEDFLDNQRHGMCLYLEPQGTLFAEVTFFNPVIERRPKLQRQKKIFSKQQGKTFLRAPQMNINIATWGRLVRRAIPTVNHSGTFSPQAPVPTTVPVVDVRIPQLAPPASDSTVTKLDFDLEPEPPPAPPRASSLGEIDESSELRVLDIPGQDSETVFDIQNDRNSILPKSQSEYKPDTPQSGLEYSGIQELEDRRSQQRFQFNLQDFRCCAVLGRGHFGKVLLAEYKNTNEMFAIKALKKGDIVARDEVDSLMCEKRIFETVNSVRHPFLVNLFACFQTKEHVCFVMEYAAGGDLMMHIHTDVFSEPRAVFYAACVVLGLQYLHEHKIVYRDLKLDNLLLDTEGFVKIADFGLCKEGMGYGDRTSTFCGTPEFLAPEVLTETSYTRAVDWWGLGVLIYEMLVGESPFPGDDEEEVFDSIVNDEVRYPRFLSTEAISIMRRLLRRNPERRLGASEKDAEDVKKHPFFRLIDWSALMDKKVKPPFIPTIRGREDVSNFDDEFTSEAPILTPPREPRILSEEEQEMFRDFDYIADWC", "experiment": "Kinase Profiler", "assay_type": "biochemical", "description": "as §2"}, "Met(Y1248C)(h)": {"target": "Met(Y1248C)(h) (Homo sapiens, UniProt P08581, Y1230C)", "experiment": "Kinase Profiler", "assay_type": "biochemical", "description": "as §2"}, "RAC1": {"target": "RAC1 (Homo sapiens, UniProt P63000)", "experiment": "Surface plasmon resonance", "assay_type": "binding", "design": "purchased Cytoskeleton RH01", "procedure": "(§1) SPR immobilization was performed at 25°C. RAC1, RHOA and CDC42 purified proteins (respectively […] and CD01, Cytoskeleton) were diluted to 5 μg/mL in Na^+ acetate buffer (pH 5.0) and injected into sensor chip CM5 (GE Healthcare) in a Biacore T200 (GE Healthcare) that was activated with NHS/EDC buffer. Approximately 5,000 response units of the purified protein were immobilized on the biosensor chip. Biosensor chips were blocked by an injection of 1 mM ethanolamine (pH 8.5). SPR analysis was performed at 25°C in HBSEP running buffer (5% DMSO) with or without EDTA (20 mM). A41 compound was injected over the RAC1, RHOA or CDC42 functionalized surface in concentration range from 0 to 25μM. Association and dissociation phases were monitored during 60s and 300s, respectively."}, "PI3K (p110a/p65a)(m)": {"test_system": "PI3K (p110a/p65a)(m)", "experiment": "Kinase Profiler", "assay_type": "biochemical, mouse", "description": "as §3"}, "Adrenergic α1A": {"target": "Adrenergic α1A (Rattus norvegicus, UniProt P43140)", "sequence (P43140 whole entry)": "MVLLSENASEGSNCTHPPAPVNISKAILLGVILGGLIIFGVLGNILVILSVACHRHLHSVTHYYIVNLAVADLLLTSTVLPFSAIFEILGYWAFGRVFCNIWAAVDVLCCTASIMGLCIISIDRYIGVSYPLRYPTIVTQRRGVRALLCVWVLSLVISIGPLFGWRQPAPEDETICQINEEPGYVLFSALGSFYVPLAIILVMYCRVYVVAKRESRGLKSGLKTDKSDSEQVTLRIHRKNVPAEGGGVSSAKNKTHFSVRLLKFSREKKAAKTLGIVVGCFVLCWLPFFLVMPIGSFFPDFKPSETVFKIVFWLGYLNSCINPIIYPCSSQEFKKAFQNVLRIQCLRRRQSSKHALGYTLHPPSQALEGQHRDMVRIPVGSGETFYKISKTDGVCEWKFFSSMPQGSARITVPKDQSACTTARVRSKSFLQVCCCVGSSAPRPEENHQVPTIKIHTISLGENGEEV", "experiment": "Safety screen", "assay_type": "binding", "description": "(§4) Blood cell counts, kinase profiler, safety screen, bacterial cytotoxicity, Ames, micronucleus assays were performed by the company Eurofins (France)."}, "Nicotinic Acetylcholine": {"test_system": "Nicotinic Acetylcholine", "experiment": "Safety screen", "assay_type": "binding, human", "description": "as §4"}, "PrKX(h)": {"target": "PrKX(h) (Homo sapiens, UniProt P51817)", "experiment": "Kinase Profiler", "assay_type": "biochemical", "description": "as §2"}, "Wee1(h)": {"target": "Wee1(h) (Homo sapiens, UniProt P30291)", "experiment": "Kinase Profiler", "assay_type": "biochemical", "description": "as §2"}, "Flt1(h)": {"target": "Flt1(h) (Homo sapiens, UniProt P17948)", "experiment": "Kinase Profiler", "assay_type": "biochemical", "description": "as §2"}, "DCAMKL1(h)": {"target": "DCAMKL1(h) (Homo sapiens, UniProt O15075)", "sequence (O15075 whole entry)": "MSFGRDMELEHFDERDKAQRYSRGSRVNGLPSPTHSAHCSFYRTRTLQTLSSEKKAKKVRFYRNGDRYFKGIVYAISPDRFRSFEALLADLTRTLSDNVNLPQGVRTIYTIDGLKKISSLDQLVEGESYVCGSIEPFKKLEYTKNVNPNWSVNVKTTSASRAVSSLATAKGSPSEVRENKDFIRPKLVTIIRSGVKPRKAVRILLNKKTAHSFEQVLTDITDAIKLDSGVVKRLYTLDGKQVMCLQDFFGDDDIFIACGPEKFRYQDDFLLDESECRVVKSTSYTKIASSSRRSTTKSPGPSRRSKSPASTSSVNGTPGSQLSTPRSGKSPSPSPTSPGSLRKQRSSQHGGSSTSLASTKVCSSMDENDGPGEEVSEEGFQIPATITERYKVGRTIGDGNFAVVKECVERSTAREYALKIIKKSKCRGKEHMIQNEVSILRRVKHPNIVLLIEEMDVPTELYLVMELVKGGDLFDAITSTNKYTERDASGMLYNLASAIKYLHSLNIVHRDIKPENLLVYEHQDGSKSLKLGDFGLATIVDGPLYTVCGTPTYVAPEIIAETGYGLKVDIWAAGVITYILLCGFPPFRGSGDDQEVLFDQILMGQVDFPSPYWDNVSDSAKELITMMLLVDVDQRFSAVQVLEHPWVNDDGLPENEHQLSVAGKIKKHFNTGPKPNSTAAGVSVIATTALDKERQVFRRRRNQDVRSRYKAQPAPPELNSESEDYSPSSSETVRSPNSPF", "experiment": "Kinase Profiler", "assay_type": "biochemical", "description": "as §3"}, "CDC42": {"target": "CDC42 (Homo sapiens, UniProt P60953)", "experiment": "Surface plasmon resonance", "assay_type": "binding", "design": "purchased Cytoskeleton CD01", "conditions": "A41 0 to 25 μM", "procedure": "as §1"}, "TrkB(h)": {"target": "TrkB(h) (Homo sapiens, UniProt Q16620)", "experiment": "Kinase Profiler", "assay_type": "biochemical", "description": "as §2"}, "SAPK4(h)": {"target": "SAPK4(h) (Homo sapiens, UniProt O15264)", "sequence (O15264 whole entry)": "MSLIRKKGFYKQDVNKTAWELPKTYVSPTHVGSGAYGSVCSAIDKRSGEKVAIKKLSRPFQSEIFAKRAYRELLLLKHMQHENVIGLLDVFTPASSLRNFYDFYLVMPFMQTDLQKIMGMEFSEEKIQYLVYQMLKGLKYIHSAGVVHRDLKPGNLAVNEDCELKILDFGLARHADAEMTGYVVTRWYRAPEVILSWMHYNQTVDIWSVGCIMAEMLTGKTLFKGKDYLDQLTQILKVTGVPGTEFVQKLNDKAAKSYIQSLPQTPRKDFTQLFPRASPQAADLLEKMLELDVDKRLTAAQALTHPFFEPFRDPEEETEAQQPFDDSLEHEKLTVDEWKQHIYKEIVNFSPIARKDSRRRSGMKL", "experiment": "Kinase Profiler", "assay_type": "biochemical", "description": "as §2"}, "PKCβII(h)": {"target": "PKCβII(h) (Homo sapiens, UniProt P05771)", "sequence (P05771 1-673 isoform P05771-2)": "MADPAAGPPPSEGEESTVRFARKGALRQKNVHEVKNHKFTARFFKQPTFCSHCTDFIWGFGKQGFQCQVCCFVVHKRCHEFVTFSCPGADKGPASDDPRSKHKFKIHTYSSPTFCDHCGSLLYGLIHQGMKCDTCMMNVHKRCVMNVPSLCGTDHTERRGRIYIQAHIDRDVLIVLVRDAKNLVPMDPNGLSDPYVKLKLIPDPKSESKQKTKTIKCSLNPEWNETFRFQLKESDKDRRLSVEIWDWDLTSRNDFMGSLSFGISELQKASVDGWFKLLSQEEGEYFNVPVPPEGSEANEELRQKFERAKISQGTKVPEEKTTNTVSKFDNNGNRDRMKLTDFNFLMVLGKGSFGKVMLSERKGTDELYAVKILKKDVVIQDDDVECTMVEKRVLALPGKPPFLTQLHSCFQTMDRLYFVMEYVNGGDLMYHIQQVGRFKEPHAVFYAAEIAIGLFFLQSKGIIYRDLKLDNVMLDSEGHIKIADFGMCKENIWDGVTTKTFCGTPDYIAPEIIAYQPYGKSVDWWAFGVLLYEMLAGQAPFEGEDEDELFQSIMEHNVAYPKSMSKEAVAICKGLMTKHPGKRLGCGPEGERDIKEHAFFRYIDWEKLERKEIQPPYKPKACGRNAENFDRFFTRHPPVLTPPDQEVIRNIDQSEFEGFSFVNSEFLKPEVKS", "experiment": "Kinase Profiler", "assay_type": "biochemical", "description": "as §2"}, "B-Raf(h)": {"target": "B-Raf(h) (Homo sapiens, UniProt P15056)", "sequence (P15056 whole entry)": "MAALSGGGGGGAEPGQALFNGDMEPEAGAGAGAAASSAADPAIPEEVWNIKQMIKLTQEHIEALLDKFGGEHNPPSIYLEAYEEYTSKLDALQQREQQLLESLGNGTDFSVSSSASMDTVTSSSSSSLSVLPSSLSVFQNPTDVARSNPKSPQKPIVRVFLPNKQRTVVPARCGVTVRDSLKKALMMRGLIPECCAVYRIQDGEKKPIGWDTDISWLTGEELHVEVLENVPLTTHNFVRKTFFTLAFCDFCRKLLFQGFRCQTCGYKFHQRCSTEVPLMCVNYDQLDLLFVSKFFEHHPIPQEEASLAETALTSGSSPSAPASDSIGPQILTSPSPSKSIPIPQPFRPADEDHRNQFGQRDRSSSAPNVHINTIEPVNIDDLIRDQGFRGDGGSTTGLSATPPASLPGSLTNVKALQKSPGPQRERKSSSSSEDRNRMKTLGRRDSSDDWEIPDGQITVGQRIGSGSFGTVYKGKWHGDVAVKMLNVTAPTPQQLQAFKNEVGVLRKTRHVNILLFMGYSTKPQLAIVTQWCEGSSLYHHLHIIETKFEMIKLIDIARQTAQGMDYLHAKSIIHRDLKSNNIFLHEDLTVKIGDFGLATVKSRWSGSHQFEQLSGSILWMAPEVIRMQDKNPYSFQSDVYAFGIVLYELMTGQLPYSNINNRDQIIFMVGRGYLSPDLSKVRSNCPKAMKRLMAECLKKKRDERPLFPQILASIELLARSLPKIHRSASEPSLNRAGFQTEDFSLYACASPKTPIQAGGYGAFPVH", "experiment": "Kinase Profiler", "assay_type": "biochemical", "description": "as §3"}, "Pim-3(h)": {"target": "Pim-3(h) (Homo sapiens, UniProt Q86V86)", "experiment": "Kinase Profiler", "assay_type": "biochemical", "description": "as §3"}, "NDR1(h)": {"target": "NDR1(h) (Homo sapiens, UniProt Q15208)", "experiment": "Kinase Profiler", "assay_type": "biochemical", "description": "as §2"}, "Abl(h)": {"target": "Abl(h) (Homo sapiens, UniProt P00519)", "experiment": "Kinase Profiler", "assay_type": "biochemical", "description": "as §2"}, "Adrenergic α2B": {"target": "Adrenergic α2B (Homo sapiens, UniProt P18089)", "experiment": "Safety screen", "assay_type": "binding", "description": "as §4"}, "Cyclooxygenase COX-1": {"target": "Cyclooxygenase COX-1 (Homo sapiens, UniProt P23219)", "experiment": "Safety screen", "assay_type": "biochemical", "description": "as §3"}, "CT26 cells": {"test_system": "CT26 cells", "experiment": "Colorectal circulating tumor cells model (pulmonary metastasis)", "assay_type": "in vivo, mouse", "conditions": "25 mg/kg i.p. daily day 0 to 14", "description": "7-8 weeks-old BALB/c female mice received an intravenous injection through the caudal vein of the cell suspension (CT26 cells, ATCC® CCL-2638™). The volume needed for implantation was loaded in insulin syringes (2x10^5 cells) in 100 μL of phosphate-buffered saline). The anesthetized mice were placed on a warming blanket and were monitored (breathing) until they wake up."}, "PDHK2(h)": {"target": "PDHK2(h) (Homo sapiens, UniProt Q15119)", "experiment": "Kinase Profiler", "assay_type": "biochemical", "description": "as §3"}, "CaMKIIγ(h)": {"target": "CaMKIIγ(h) (Homo sapiens, UniProt Q13555)", "experiment": "Kinase Profiler", "assay_type": "biochemical", "description": "as §2"}, "Monoamine Oxidase MAO-B": {"target": "Monoamine Oxidase MAO-B (Homo sapiens, UniProt P27338)", "experiment": "Safety screen", "assay_type": "biochemical", "description": "as §4"}, "CDK13/cyclinK(h)": {"target": "CDK13/cyclinK(h) (Homo sapiens, UniProt Q14004)", "description": "as §3"}, "[2]": {"test_system": "Glutamate, NMDA, Phencyclidine", "experiment": "Safety screen", "assay_type": "binding, rat", "description": "as §3"}, "p70S6K(h)": {"target": "p70S6K(h) (Homo sapiens, UniProt P23443)", "experiment": "Kinase Profiler", "assay_type": "biochemical", "description": "as §3"}, "Estrogen ERα": {"target": "Estrogen ERα (Homo sapiens, UniProt P03372)", "sequence (P03372 whole entry)": "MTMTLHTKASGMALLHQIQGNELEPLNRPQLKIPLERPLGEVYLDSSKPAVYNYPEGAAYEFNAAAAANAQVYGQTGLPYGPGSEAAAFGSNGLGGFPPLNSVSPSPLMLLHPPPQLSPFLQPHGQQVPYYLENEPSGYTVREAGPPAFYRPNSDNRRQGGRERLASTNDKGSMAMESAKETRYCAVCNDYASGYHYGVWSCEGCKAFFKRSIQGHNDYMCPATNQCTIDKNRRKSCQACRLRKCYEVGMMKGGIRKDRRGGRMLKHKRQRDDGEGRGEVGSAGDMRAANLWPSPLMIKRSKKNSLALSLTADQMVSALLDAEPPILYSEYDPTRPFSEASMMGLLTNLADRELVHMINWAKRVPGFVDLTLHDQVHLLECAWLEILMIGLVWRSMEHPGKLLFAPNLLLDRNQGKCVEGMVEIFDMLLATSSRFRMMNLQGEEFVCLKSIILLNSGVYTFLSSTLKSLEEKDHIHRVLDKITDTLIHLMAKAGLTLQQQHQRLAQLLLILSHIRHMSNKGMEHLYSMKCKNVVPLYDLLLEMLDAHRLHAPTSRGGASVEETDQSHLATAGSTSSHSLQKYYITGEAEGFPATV", "experiment": "Safety screen", "assay_type": "binding", "description": "as §4"}, "Fms(h)": {"target": "Fms(h) (Homo sapiens, UniProt P07333)", "experiment": "Kinase Profiler", "assay_type": "biochemical", "description": "as §2"}},
  "note": "pKd: −log10 of the molar value.",
  "data": [
    {"molecule": "COc1ccc(OC)c(NS(=O)(=O)c2ccc(NC(=O)CCSc3ccc(C)cc3)cc2)c1", "note": "[Compound A41]", "values": [
      {"measurement": "Activity(%)", "setting": "[1]", "result": 105, "unit": "%"},
      {"measurement": "Activity(%)", "setting": "SRMS(h)", "result": 102, "unit": "%"},
      {"measurement": "Activity(%)", "setting": "Rsk3(h)", "result": 93, "unit": "%"},
      {"measurement": "Activity(%)", "setting": "MLK4(h)", "result": 104, "unit": "%"},
      {"measurement": "Activity(%)", "setting": "CHK1(h)", "result": 120, "unit": "%"},
      {"measurement": "Activity(%)", "setting": "MEK1(h)", "result": 97, "unit": "%"},
      {"measurement": "Activity(%)", "setting": "SBK1(h)", "result": 101, "unit": "%"},
      {"measurement": "Activity(%)", "setting": "PRK2(h)", "result": 110, "unit": "%"},
      {"measurement": "Activity(%)", "setting": "Met(Y1248C)(h)", "result": 118, "unit": "%"},
      {"measurement": "binding to RAC1", "setting": "RAC1; in the presence of 20 mM EDTA", "result": "strongly increased"},
      {"measurement": "pKd", "setting": "RAC1; purified RAC1-GDP, without EDTA", "result": 7.52},
      {"measurement": "Activity(%)", "setting": "PI3K (p110a/p65a)(m)", "result": 100, "unit": "%"},
      {"measurement": "% inh.", "setting": "Adrenergic α1A", "result": 34, "unit": "%"},
      {"measurement": "% inh.", "setting": "Nicotinic Acetylcholine", "result": -3, "unit": "%"},
      {"measurement": "Activity(%)", "setting": "PrKX(h)", "result": 98, "unit": "%"},
      {"measurement": "Activity(%)", "setting": "Wee1(h)", "result": 112, "unit": "%"},
      {"measurement": "Activity(%)", "setting": "Flt1(h)", "result": 103, "unit": "%"},
      {"measurement": "Activity(%)", "setting": "DCAMKL1(h)", "result": 99, "unit": "%"},
      {"measurement": "binding", "setting": "CDC42", "result": "No binding was measured"},
      {"measurement": "Activity(%)", "setting": "TrkB(h)", "result": 108, "unit": "%"},
      {"measurement": "Activity(%)", "setting": "SAPK4(h)", "result": 104, "unit": "%"},
      {"measurement": "Activity(%)", "setting": "PKCβII(h)", "result": 97, "unit": "%"},
      {"measurement": "Activity(%)", "setting": "B-Raf(h)", "result": 90, "unit": "%"},
      {"measurement": "Activity(%)", "setting": "Pim-3(h)", "result": 101, "unit": "%"},
      {"measurement": "Activity(%)", "setting": "NDR1(h)", "result": 114, "unit": "%"},
      {"measurement": "Activity(%)", "setting": "Abl(h)", "result": 90, "unit": "%"},
      {"measurement": "% inh.", "setting": "Adrenergic α2B", "result": 9, "unit": "%"},
      {"measurement": "% inh.", "setting": "Cyclooxygenase COX-1", "result": -11, "unit": "%"},
      {"measurement": "animal survival", "setting": "CT26 cells", "result": "improvement in animal survival"},
      {"measurement": "development of pulmonary metastases", "setting": "CT26 cells", "result": "significantly reduced the development of pulmonary metastases"},
      {"measurement": "Activity(%)", "setting": "PDHK2(h)", "result": 96, "unit": "%"},
      {"measurement": "Activity(%)", "setting": "CaMKIIγ(h)", "result": 92, "unit": "%"},
      {"measurement": "% inh.", "setting": "Monoamine Oxidase MAO-B", "result": 17, "unit": "%"},
      {"measurement": "Activity(%)", "setting": "CDK13/cyclinK(h)", "result": 97, "unit": "%"},
      {"measurement": "% inh.", "setting": "[2]", "result": -6, "unit": "%"},
      {"measurement": "Activity(%)", "setting": "p70S6K(h)", "result": 103, "unit": "%"},
      {"measurement": "% inh.", "setting": "Estrogen ERα", "result": 10, "unit": "%"},
      {"measurement": "Activity(%)", "setting": "Fms(h)", "result": 112, "unit": "%"}
    ]}
  ]
}
